Assay results published in ChEMBL document CHEMBL1128399, “Annulated heterocyclic bioisosteres of norarecoline. Synthesis and molecular pharmacology at five recombinant human muscarinic acetylcholine receptors” (J Med Chem, 1995).

What was measured:
[1] = target: Muscarinic acetylcholine receptor; test: In vitro binding affinity to the Muscarinic acetylcholine receptor by displacing [3H]PZ from the rat brain tissues
[2] = target: Muscarinic acetylcholine receptor; test: In vitro binding affinity to the Muscarinic acetylcholine receptor by displacing [3H]QNB from the rat brain tissues
[3] = target: Muscarinic acetylcholine receptor; test: In vitro binding affinity to the Muscarinic acetylcholine receptor by displacing [3H]-QNB from the rat heart tissues; type: protein assay
[4] = target: T1, Muscarinic acetylcholine receptor M1 (Homo sapiens, UniProt P11229); test: In Vitro evaluation activity at the cloned Human Muscarinic acetylcholine receptor M1 determined by receptor selection and amplification technology (R-SAT)
T1 sequence (P11229 whole entry): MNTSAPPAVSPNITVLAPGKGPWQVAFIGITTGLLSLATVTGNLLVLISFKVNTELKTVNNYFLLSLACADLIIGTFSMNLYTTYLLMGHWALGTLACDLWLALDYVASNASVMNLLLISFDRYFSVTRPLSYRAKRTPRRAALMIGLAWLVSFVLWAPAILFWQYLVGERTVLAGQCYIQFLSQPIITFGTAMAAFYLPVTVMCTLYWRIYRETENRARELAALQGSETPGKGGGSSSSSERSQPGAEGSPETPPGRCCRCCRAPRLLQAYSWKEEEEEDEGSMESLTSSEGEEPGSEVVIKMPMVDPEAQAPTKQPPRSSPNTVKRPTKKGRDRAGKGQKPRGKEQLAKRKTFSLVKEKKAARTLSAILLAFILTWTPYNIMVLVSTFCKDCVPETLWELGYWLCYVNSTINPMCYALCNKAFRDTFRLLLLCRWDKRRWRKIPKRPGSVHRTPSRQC

[5] = target: T2, Muscarinic acetylcholine receptor M2 (Homo sapiens, UniProt P08172); test: In Vitro activity at the cloned Human Muscarinic acetylcholine receptor M2 determined by receptor selection and amplification technology (R-SAT).
T2 sequence (P08172 whole entry): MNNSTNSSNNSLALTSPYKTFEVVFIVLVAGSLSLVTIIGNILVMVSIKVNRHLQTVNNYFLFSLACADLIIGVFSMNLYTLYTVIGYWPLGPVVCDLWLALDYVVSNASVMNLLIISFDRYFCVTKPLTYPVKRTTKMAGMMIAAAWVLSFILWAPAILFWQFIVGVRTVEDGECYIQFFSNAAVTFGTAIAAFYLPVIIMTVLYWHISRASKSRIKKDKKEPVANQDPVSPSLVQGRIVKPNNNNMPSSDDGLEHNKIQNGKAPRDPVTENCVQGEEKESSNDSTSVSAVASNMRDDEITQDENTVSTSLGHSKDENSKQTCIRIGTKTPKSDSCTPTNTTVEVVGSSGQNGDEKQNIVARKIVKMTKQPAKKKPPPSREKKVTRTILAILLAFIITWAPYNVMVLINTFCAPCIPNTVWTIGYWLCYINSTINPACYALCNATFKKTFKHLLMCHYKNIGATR

[6] = target: Muscarinic acetylcholine receptor M3 (Homo sapiens, UniProt P20309); test: In Vitro activity at the cloned Human Muscarinic acetylcholine receptor M3 determined by receptor selection and amplification technology (R-SAT)
Chain of Muscarinic acetylcholine receptor M3 (P20309 whole entry): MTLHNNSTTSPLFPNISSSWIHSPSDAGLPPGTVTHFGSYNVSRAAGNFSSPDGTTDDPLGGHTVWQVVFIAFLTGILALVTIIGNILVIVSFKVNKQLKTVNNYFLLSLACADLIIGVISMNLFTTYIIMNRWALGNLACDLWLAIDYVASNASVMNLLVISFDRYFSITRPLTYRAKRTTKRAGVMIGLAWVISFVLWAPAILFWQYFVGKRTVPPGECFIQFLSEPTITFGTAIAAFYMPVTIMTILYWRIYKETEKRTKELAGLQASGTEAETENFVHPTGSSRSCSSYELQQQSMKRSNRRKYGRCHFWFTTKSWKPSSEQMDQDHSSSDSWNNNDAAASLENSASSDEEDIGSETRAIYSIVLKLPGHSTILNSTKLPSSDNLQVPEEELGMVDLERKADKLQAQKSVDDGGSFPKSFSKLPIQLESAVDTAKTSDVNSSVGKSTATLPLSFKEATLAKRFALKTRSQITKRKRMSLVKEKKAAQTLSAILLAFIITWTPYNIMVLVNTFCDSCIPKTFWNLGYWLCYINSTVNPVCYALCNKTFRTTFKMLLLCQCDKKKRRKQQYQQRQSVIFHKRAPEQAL

[7] = target: T3, Muscarinic acetylcholine receptor M5 (Homo sapiens, UniProt P08912); test: In Vitro activity at the cloned Human Muscarinic acetylcholine receptor M5 determined by receptor selection and amplification technology (R-SAT)
T3 sequence (P08912 whole entry): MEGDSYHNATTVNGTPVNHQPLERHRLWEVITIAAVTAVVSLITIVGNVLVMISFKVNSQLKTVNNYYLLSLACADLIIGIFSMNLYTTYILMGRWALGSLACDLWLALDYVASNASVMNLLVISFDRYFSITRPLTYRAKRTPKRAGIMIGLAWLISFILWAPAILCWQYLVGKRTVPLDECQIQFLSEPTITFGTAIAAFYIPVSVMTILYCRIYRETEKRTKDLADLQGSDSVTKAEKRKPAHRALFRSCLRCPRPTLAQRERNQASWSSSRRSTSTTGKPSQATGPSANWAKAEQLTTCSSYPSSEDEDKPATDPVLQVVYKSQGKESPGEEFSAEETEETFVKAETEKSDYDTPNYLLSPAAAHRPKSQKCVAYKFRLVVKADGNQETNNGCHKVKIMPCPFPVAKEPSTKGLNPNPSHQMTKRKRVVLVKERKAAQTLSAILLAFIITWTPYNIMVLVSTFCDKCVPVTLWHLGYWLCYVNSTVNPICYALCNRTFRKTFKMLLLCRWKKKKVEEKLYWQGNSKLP

[8] = target: T4, Muscarinic acetylcholine receptor M4 (Homo sapiens, UniProt P08173); test: In Vitro activity at the cloned Human Muscarinic acetylcholine receptor M4 determined by receptor selection and amplification technology (R-SAT)
T4 sequence (P08173 whole entry): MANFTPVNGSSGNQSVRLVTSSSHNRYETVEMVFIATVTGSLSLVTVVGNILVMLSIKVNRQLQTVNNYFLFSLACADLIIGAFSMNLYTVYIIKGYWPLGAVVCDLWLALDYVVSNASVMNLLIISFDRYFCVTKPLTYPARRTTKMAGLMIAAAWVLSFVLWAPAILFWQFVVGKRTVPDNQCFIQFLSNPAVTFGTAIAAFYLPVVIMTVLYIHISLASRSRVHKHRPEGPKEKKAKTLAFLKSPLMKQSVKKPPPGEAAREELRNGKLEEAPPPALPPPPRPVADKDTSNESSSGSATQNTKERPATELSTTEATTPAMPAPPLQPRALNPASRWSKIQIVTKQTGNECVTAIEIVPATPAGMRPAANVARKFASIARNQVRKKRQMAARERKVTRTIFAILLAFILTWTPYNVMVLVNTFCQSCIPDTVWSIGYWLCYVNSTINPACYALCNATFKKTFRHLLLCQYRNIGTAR

[9] = target: Muscarinic acetylcholine receptor; test: In vitro binding affinity to the Muscarinic acetylcholine receptor by displacing [3H]OXO-M from the rat brain tissues
[10] = test system: Muscarinic acetylcholine receptors (Rattus norvegicus); test: Relative efficacy and M1 selectivity by agonist index.
[11] = target: Muscarinic acetylcholine receptor; test: In vitro binding affinity to the Muscarinic acetylcholine receptor by displacing [3H]- Oxo-M from the rat brain tissues

Row | IC50 [1] | IC50 [2] | IC50 [3] | EC50 [4] | EC50 [5] | EC50 [6] | EC50 [7] | EC50 [8] | IC50 [9] | Agonist index [10] | SMILES | IC50 [11]
1 | 390 nM | 6400 nM | 350 nM | 460 nM | 43 nM | 620 nM | 4700 nM | 240 nM | 10 nM | 104 | COc1noc2c1CNCCC2 | 
2 | 23 nM | 480 nM | 82 nM | 140 nM | 6.7 nM | 130 nM | 950 nM | 30 nM | 0.75 nM | 104 | C#CCOc1noc2c1CNCCC2 | 
3 | 13 nM | 370 nM | 360 nM |  |  |  |  |  | 11 nM | 5.4 | CC(C)Oc1noc2c1CNCCC2 | 
4 | 18 nM | 530 nM | 140 nM | 95 nM | 41 nM | 500 nM |  | 67 nM | 3.4 nM | 25 | CCOc1noc2c1CNCCC2 | 

Row | SMILES | IC50 [1] | IC50 [2] | IC50 [3] | EC50 [4] | EC50 [5] | EC50 [6] | EC50 [7] | EC50 [8] | IC50 [9] | Agonist index [10] | IC50 [11]
5 | O=C1CCCN1CC#CCN1CCCC1 [OXOTREMORINE] | 93 nM | 2300 nM | 84 nM |  |  |  |  |  |  |  | 1.2 nM
